The results in this text go back to ChEMBL document CHEMBL1201862, “PubChem BioAssay data set” (2004).

Test systems include HL-60; SNB-19; SNB-75; OVCAR-5; OVCAR-8; OVCAR-3; SK-MEL-28; RPMI-8226; Malme-3M; HOP-62; HCC 2998; UACC-62; K562; HOP-92; COLO 205; UACC-257; HT-29; UO-31; SF-539.
Assay in all cases: DTP human tumour cell line panel, 48 h

SMILES strings stand for the structures.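 In this assay, cells in 96-well plates receive the compound at five concentrations for 48 hours. Endpoints are linearly interpolated between the surrounding concentrations. At the GI50, growth is halved.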 Activity calls are given as the source filed them. Rule as the data show it: active = GI50 up to about 1.1 µM and inactive = higher.

As for `CSc1nc2nc(C)c(C)nc2c(=O)[nH]1`, the GI50 in the assay on HL-60, with SNB-19, in the assay on SNB-75, in the assay on OVCAR-5, in the assay on OVCAR-8 and in the assay on OVCAR-3 was > 100 µM (inactive) throughout. The GI50 in the assay on SK-MEL-28, in the assay with RPMI-8226, in the assay on Malme-3M, in the assay on HOP-62, with HCC 2998 and with UACC-62 was > 100 µM (inactive) in each case. The GI50 in the assay on K562, with HOP-92, in the assay on COLO 205, with UACC-257, in the assay on HT-29 and with UO-31 was > 100 µM (inactive) in each case.
Turning to `O=C1CCC2COc3ccc(O)c1c32` (centres undefined), the GI50 was > 100 µM (inactive) in the assay on HL-60; 24.1 µM (inactive) in the assay on SNB-19; 77.6 µM (inactive) in the assay with SNB-75; > 100 µM (inactive) in the assay on OVCAR-8; > 100 µM (inactive) in the assay on OVCAR-3; > 100 µM (inactive) in the assay on SK-MEL-28. Besides, the GI50 with RPMI-8226 is > 100 µM (inactive); in the assay with UACC-62, > 100 µM (inactive); in the assay with K562, > 100 µM (inactive); in the assay with HOP-92, 79.3 µM (inactive); in the assay on COLO 205, > 100 µM (inactive); in the assay with UACC-257, > 100 µM (inactive). Besides, the GI50 in the assay with HT-29 and in the assay on SF-539 was > 100 µM (inactive) in each case.
On to `COc1ccc2c(c1)OCCC1=C2SCC2(C)CCN=C12` (centres undefined), for which the GI50 with HL-60 is 29 µM (inactive); in the assay with SNB-19 it was > 100 µM (inactive); in the assay with SNB-75, > 100 µM (inactive); in the assay with OVCAR-8, > 100 µM (inactive); in the assay on OVCAR-3 it was 72.6 µM (inactive); with SK-MEL-28, > 100 µM (inactive). Besides, the GI50 in the assay on RPMI-8226 is > 100 µM (inactive); in the assay with HOP-62, > 100 µM (inactive); with HCC 2998 it was > 10 µM (inactive); in the assay with UACC-62, > 100 µM (inactive); with K562 it was 46.2 µM (inactive); in the assay with COLO 205, > 100 µM (inactive). For the same compound, the GI50 is 55.2 µM (inactive) with HT-29 and > 100 µM (inactive) in the assay with SF-539.
Regarding `O=C1NC2OCC(O)C(O1)C2O` (centres undefined), the GI50 in the assay on HL-60, in the assay on SNB-19, in the assay on SNB-75, in the assay with OVCAR-5, with OVCAR-8 and in the assay with OVCAR-3 was > 100 µM (inactive) in each case. Besides, the GI50 with SK-MEL-28, with RPMI-8226, in the assay on Malme-3M, with HOP-62, in the assay with UACC-62 and in the assay on K562 was > 100 µM (inactive) each time. In addition, the GI50 with HOP-92, in the assay on COLO 205, in the assay on UACC-257, in the assay on HT-29, with UO-31 and in the assay with SF-539 was > 100 µM (inactive) in each case.
As to `C(=C\c1csnn1)/c1cccnc1`, the GI50 with HL-60, with SNB-19, in the assay with SNB-75, in the assay on OVCAR-5, with OVCAR-8 and with OVCAR-3 was > 100 µM (inactive) each time. Further, the GI50 with SK-MEL-28, in the assay with RPMI-8226, in the assay on Malme-3M, in the assay with HOP-62, in the assay with HCC 2998 and with K562 was > 100 µM (inactive) throughout. For the same compound, the GI50 in the assay with COLO 205, in the assay on UACC-257, in the assay with HT-29, with UO-31 and in the assay with SF-539 was > 100 µM (inactive) throughout.
For `COc1cccc(/C=C2\C(=O)N(C(=O)Cc3ccccc3)N=C2C)c1`, the GI50 with HL-60, in the assay with SNB-19, with SNB-75, with OVCAR-5, in the assay with OVCAR-8 and in the assay on OVCAR-3 was > 100 µM (inactive) in each case. In addition, the GI50 in the assay with SK-MEL-28, with RPMI-8226, in the assay with Malme-3M, in the assay with HOP-62, with HCC 2998 and with K562 was > 100 µM (inactive) each time. Moreover, the GI50 in the assay with COLO 205, with UACC-257, with HT-29, in the assay on UO-31 and in the assay with SF-539 was > 100 µM (inactive) throughout.
With `CC(C)(C)c1ccc(C(O)c2ccc(C(C)(C)C)cc2)cc1`, the GI50 with HL-60 is 17.1 µM (inactive); with SNB-19, 17.9 µM (inactive); with SNB-75 it was 19.2 µM (inactive); in the assay with OVCAR-5, 16.6 µM (inactive); in the assay with OVCAR-8 it was 14.8 µM (inactive); with OVCAR-3, 14.5 µM (inactive). Moreover, the GI50 in the assay on SK-MEL-28 was 16.8 µM (inactive); with Malme-3M, 15.8 µM (inactive); in the assay on HOP-62, 16.3 µM (inactive); in the assay with HCC 2998, 21 µM (inactive); in the assay on UACC-62 it was 15.8 µM (inactive); in the assay with K562 it was 14.7 µM (inactive). Besides, the GI50 with HOP-92 was 12.6 µM (inactive); in the assay with COLO 205, 13.6 µM (inactive); in the assay on UACC-257 it was 18.8 µM (inactive); with HT-29, 10.4 µM (inactive); in the assay with UO-31, 16 µM (inactive); with SF-539 it was 17.3 µM (inactive).
As to `O=C1NC2(CCCCC2)C2CCCCC(O)C12` (centres undefined), the GI50 in the assay on HL-60 was > 100 µM (inactive); with SNB-19 it was > 100 µM (inactive); with SNB-75, 57.1 µM (inactive); with OVCAR-5 it was > 100 µM (inactive); in the assay with OVCAR-8, > 100 µM (inactive); with OVCAR-3, > 100 µM (inactive). In addition, the GI50 in the assay on SK-MEL-28, with RPMI-8226, in the assay on Malme-3M, in the assay on HOP-62, in the assay with HCC 2998 and with UACC-62 was > 100 µM (inactive) throughout. For the same compound, the GI50 in the assay with K562, in the assay on COLO 205, in the assay with UACC-257, in the assay on HT-29, with UO-31 and in the assay with SF-539 was > 100 µM (inactive) in each case.
Turning to `COC(=O)c1cc2c(s1)C(=O)c1ccccc1-2`, the GI50 with HL-60, in the assay with SNB-19, in the assay on SNB-75, in the assay on OVCAR-5, in the assay with OVCAR-8 and in the assay on OVCAR-3 was > 100 µM (inactive) in each case. Also, the GI50 in the assay on SK-MEL-28, in the assay on Malme-3M, in the assay on HOP-62, in the assay with HCC 2998, in the assay on UACC-62 and in the assay with K562 was > 100 µM (inactive) each time. The GI50 in the assay on HOP-92 is > 100 µM (inactive); in the assay with COLO 205, > 100 µM (inactive); in the assay with UACC-257 it was > 100 µM (inactive); with HT-29 it was > 10 µM (inactive); with UO-31 it was > 100 µM (inactive); in the assay with SF-539, > 100 µM (inactive).
As to `COc1cc(CO)c(CC(=O)NCCCc2ccccc2)cc1OC`, the GI50 in the assay on HL-60 was 38 µM (inactive); with SNB-19, > 100 µM (inactive); with SNB-75 it was > 100 µM (inactive); in the assay with OVCAR-5 it was > 100 µM (inactive); in the assay with OVCAR-8 it was > 100 µM (inactive); with OVCAR-3 it was > 100 µM (inactive). Moreover, the GI50 in the assay with SK-MEL-28, in the assay on Malme-3M, in the assay with HOP-62, in the assay with HCC 2998, with UACC-62 and with K562 was > 100 µM (inactive) throughout. Further, the GI50 in the assay on HOP-92, with COLO 205, in the assay on UACC-257, in the assay with HT-29 and with UO-31 was > 100 µM (inactive) throughout.
For the compound `COC(=O)c1ccc(NC(=O)c2cc(OC)c(OC)c(OC)c2)cc1`, the GI50 with HL-60 was 2.09 µM (inactive); in the assay on SNB-19 it was 1 µM (active); with SNB-75 it was 42.1 µM (inactive); in the assay on OVCAR-8, 12.2 µM (inactive); in the assay on OVCAR-3, 1.08 µM (active); in the assay on SK-MEL-28, 0.798 µM (active). Besides, the GI50 was 0.644 µM (active) with Malme-3M; 7.6 µM (inactive) in the assay on HOP-62; 1.99 µM (inactive) with HCC 2998; 1.09 µM (active) in the assay on UACC-62; 1.97 µM (inactive) in the assay on K562; 6.65 µM (inactive) in the assay with HOP-92. Besides, the GI50 is 0.211 µM (active) with COLO 205; 0.0215 µM (active) with UACC-257; 1.35 µM (inactive) in the assay with HT-29; 2.05 µM (inactive) with UO-31; 1.21 µM (inactive) with SF-539.
`C=C1CCC2[C@@H](CCC3[C@]2(C)CCC[C@]3(C)C(=O)OC)C1CCO` (some centres undefined): the GI50 in the assay on HL-60 was 4.02 µM (inactive); in the assay with SNB-19 it was 14 µM (inactive); in the assay on SNB-75 it was 7.46 µM (inactive); in the assay with OVCAR-5, 14.9 µM (inactive); with OVCAR-8, 18.8 µM (inactive); in the assay on OVCAR-3 it was 12.6 µM (inactive). Besides, the GI50 is 13.9 µM (inactive) in the assay with SK-MEL-28; 3.12 µM (inactive) in the assay on RPMI-8226; 14.9 µM (inactive) in the assay with Malme-3M; 19.8 µM (inactive) in the assay on HOP-62; 11.2 µM (inactive) with UACC-62; 6 µM (inactive) with K562. In addition, the GI50 in the assay on HOP-92 is 7.08 µM (inactive); in the assay with COLO 205 it was 13 µM (inactive); with UACC-257, 5.98 µM (inactive); with HT-29, 4.37 µM (inactive); in the assay with UO-31, 14.7 µM (inactive); with SF-539, 13.4 µM (inactive).
